Where two headings read alike, the source gives them in different places. Blank lines part the entries; values can stand above or below the molecule they belong to.
Legend:
Mahlavu (HCC) = assay: Combination drug treatment, Combination Index and IC50 (Example 6); type: cell-based, Human
Excerpt: (§1) Chou: Theoretical Basis, Experimental Design, and Computerized Simulation of Synergism and Antagonism in Drug Combination Studies, Pharmacological Reviews.

HeLa (Cervical) = assay: as above; type: cell-based
Excerpt: as §1

NPM = assay: Induction of NPM expression by cellular stresses (Example 2); type: cell-based, Human; conditions: HCC cell lines following exposure; cisplatin 5.5, 69, 6.4 μg/ml, doxorubicin 1.4, 8.8, 5 μg/ml
Excerpt: (§2) A subset of NPM was translocated to cytoplasm 6 hr after UV irradiation (indicated by an arrow in the right panel).
(§3) The expression of β-actin was used as the loading control. Simultaneous induction of BAX (pro-apoptosis) and NPM (anti-apoptosis) of cells upon cellular stress represents counteracting mechanisms regulating apoptosis versus survival response.

BAX [1] = assay: Induction of BAX expression by cellular stresses (Example 2); type: cell-based, Human; conditions: all three HCC cell lines following treatment
Excerpt: as §2, §3

BAX [2] = assay: BAX mitochondrial translocation and oligomerization in liver cancer cells (Example 4); type: cell-based, Human; conditions: Hep3B and Mahlavu cells
Excerpt: FIG. 6A illustrates the expression of NPM and BAX in the cytosol and the mitochondria of Mahlavu liver cancer cells following UV irradiation with or without transfected siRNA targeting NPM (NPM) or siRNA with scrambled sequences (NS). FIG. 6B illustrates the effect of siNPM and siNS on BAX dimmers (indicated with an asterisk) and BAX oligomers (twin-asterisk) in the mitochondria or the nuclei.
FIG. 6A illustrates cytoplasmic NPM increased after UV irradiation, whereas BAX increased in the cytosol and mitochondria after UV irradiation. Suppressing NPM expression by siRNA reduced the cytosolic BAX, while mitochondrial BAX level increased. […] Prohibitin (PHB) and glyceraldehyde 3-phosphate dehydrogenase (GAPDH) were used as the markers for mitochondrial and cytosolic components, respectively. Similar result for mitochondrial BAX enhancement was observed by inhibiting NPM with chemotherapeutic agents, such as staurosporin in Hep3B and Mahlavu cells.
A non-reducing condition for preparing cellular proteins was employed to validate the above findings.

[3] = Homo sapiens, concentration of the named drug in Lapatinib + NSC348884 combination therapy, 72 hours, read-out: IC50 Combination Therapy
[4] = Homo sapiens, monotherapy, 72 hours after exposure, read-out: IC50 Monotherapy
[5] = concentration of the named drug in Lapatinib + NSC348884 combination therapy, 72 hours, read-out: IC50 Combination Therapy
[6] = monotherapy, 72 hours after exposure, read-out: IC50 Monotherapy

IC50 (Mahlavu (HCC); [3]): 14.4 µM | IC50 (Mahlavu (HCC); [4]): 12.8 µM | IC50 (HeLa (Cervical); [3]): 18.4 µM | IC50 (HeLa (Cervical); [4]): 20.8 µM
Structure (SMILES): CS(=O)(=O)CCNCc1ccc(-c2ccc3ncnc(Nc4ccc(OCc5cccc(F)c5)c(Cl)c4)c3c2)o1 [Lapatinib]

IC50 (Mahlavu (HCC); [5]): 3.84 µM | IC50 (Mahlavu (HCC); [6]): 6.15 µM | IC50 (HeLa (Cervical); [5]): 4.92 µM | IC50 (HeLa (Cervical); [6]): 6.24 µM
Structure (SMILES): Cc1ccc2nc(CN(CCN(Cc3nc4ccc(C)cc4[nH]3)Cc3nc4ccc(C)cc4[nH]3)Cc3nc4ccc(C)cc4[nH]3)[nH]c2c1 [NSC348884]

Structure (SMILES): N.N.[Cl][Pt][Cl] [cisplatin]
NPM expression (NPM): upregulated | BAX expression (BAX [1]): increased

Structure (SMILES): COc1cccc2c1C(=O)c1c(O)c3c(c(O)c1C2=O)C[C@@](O)(C(=O)CO)C[C@@H]3O[C@H]1C[C@H](N)[C@H](O)[C@H](C)O1 [doxorubicin]
NPM expression (NPM): upregulated | BAX expression (BAX [1]): increased

Structure (SMILES): CN[C@@H]1C[C@H]2O[C@@](C)([C@@H]1OC)n1c3ccccc3c3c4c(c5c6ccccc6n2c5c31)C(=O)NC4 [staurosporin]
mitochondrial BAX (BAX [2]): enhancement

Source: patent US9592407B2, “Pharmaceutical composition and uses thereof” (CHANG GUNG MEMORIAL HOSPITAL, LINKOU, priority 2012, dated 2017)
